Laboratory results taken from ChEMBL document CHEMBL3301472, “MMV Malaria Box HIV and cytotoxicity screening”.

Legend:
Assay type in all cases: toxicity, cell-based
[1] = MMV: MTT Cytotoxicity Assay Day 3 pi, U87-CD4-CCR5 cells, % cell death @ 5mM compound; conditions: human, u87-cd4-ccr5, 5000 µM
[2] = MMV: MTT Cytotoxicity Assay Day 3 pi, U87-CD4-CXCR4 cells, % cell death @ 5mM compound; conditions: human, u87-cd4-cxcr4, 5000 µM
[3] = MMV: MTT Cytotoxicity Assay Day 7 pi of Assay #6 (compound washed out Day 1 pi), U87-CD4-CCR5 cells, % cell death @ 5mM compound; conditions: human, u87-cd4-ccr5, 5000 µM
[4] = MMV: MTT Cytotoxicity Assay Day 7 pi of Assay #7 (compound washed out Day 1 pi), U87-CD4-CXCR4 cells, % cell death @ 5mM compound; conditions: human, u87-cd4-cxcr4, 5000 µM
[5] = MMV: MTT Cytotoxicity Assay Day 7 pi of Assay #10 (NO washout), U87-CD4-CCR5 cells, % cell death @ 5mM compound; conditions: human, u87-cd4-ccr5, 5000 µM
[6] = MMV: MTT Cytotoxicity Assay Day 7 pi of Assay #11 (NO washout), U87-CD4-CXCR4 cells, % cell death @ 5mM compound; conditions: human, u87-cd4-cxcr4, 5000 µM

Row | SMILES | % Cell Death [1] | % Cell Death [2] | % Cell Death [3] | % Cell Death [4] | % Cell Death [5] | % Cell Death [6]
1 | COc1ccccc1N1C(=N)SC(=Cc2ccc(OCc3ccccc3F)cc2)C1=O | 17 | 24 | 23 | 7 | 30 | 24
2 | O=C(Nc1cccc(C(F)(F)F)c1)c1cc(Cl)ccc1O | 95 | 70 | 100 | 97 | 124 | 95
3 | CC(C)=CCN1CCC(C(=O)Nc2ccc(-c3nc4ccccc4[nH]3)cc2)CC1 | 10 | 22 | 6 | 4 | 11 | -26
4 | O=C(O)C(=O)O.Oc1ccc(Br)cc1CN1CCN(Cc2cccc(F)c2)CC1 | 107 | 101 | 94 | 86 | 103 | 112
5 | COc1ccc(Br)cc1C1Nc2ccc3ccccc3c2C2=C1C(=O)CC(c1ccccc1)C2 (centres undefined) | 17 | 28 | 30 | -14 | 16 | -37
6 | CCOC(=O)c1c(C)n(-c2ccccc2)c2ccc(OC(=O)c3cc(OC)c(OC)c(OC)c3)cc12 | -4 | 34 | -12 | 2 | 12 | -19
7 | CNCCCNc1ccnc2cc(Cl)ccc12 | 108 | 100 | 97 | 98 | 124 | 100
8 | COc1ccccc1CNC(=O)CCn1c(=O)[nH]c2ccccc2c1=O | -7 | 12 | 7 | -15 | 16 | -16
9 | Cc1cc(Nc2ccc3ccccc3c2)n2ncnc2n1 | 39 | 38 | 12 | -16 | -3 | -43
10 | COc1ccc(CNC2CCN(c3ccc(NC(=O)c4cccc(Cl)c4)cc3)CC2)cc1OC | -8 | -2 | 28 | -21 | 11 | -37
11 | COc1cc2c3cc1Oc1c(OC)c(OC)cc4c1C(Cc1ccc(O)c(c1)Oc1ccc(cc1)CC3N(C)CC2)N(C)CC4.Cl (centres undefined) | -12 | 36 | 3 | 32 | 43 | 83
12 | COc1ccc(-c2c(C)nn3c(N)c(C#N)cnc23)cc1OC | 83 | 98 | 93 | 89 | 124 | 93
13 | Cc1ccc(Cn2c(N3CCC(C(=O)NCc4cccs4)CC3)nc3ccccc32)cc1 | 5 | 4 | 12 | 58 | 18 | 78
14 | CC1CCN(Cc2c(O)ccc3cc(-c4nc5ccccc5s4)c(=O)oc23)CC1 | 12 | 33 | 16 | -13 | 30 | 9
15 | Oc1ccc(Br)cc1CN1CCN(Cc2ccc(Cl)cc2)CC1 | 27 | 69 | 12 | 29 | 46 | 44
16 | COc1ccc(CCNC(=O)c2cc(S(=O)(=O)N3CC(C)CC(C)C3)ccc2Sc2ccc(F)cc2)cc1OC (centres undefined) | 39 | 39 | -8 | 14 | 27 | 29
17 | CCCCC(O)(c1ccc(Cl)cc1)C(CN1CCOCC1)c1ccc(Cl)cc1.Cl (centres undefined) | -6 | 36 | -10 | -16 | 17 | 41
18 | CCOc1ccc2c(c1)CN(Cc1ccc(Cl)cc1)CO2 | 8 | 32 | 11 | -14 | 13 | 20
19 | N=c1c2ccccc2nnn1-c1cccc(C(F)(F)F)c1 | 106 | 99 | 68 | 86 | 101 | 112
20 | CCOc1ccccc1NC(=O)CN1CCN(C(=O)c2ccco2)CC1 | -66 | -22 | 13 | 38 | 37 | 36
21 | COc1ccc(NC(=O)C2c3ccccc3C(=O)N(CC(C)C)C2c2cccs2)cc1Cl (centres undefined) | 13 | 22 | 5 | -21 | -2 | -10
22 | Cl.Cn1c(=O)n(C)c2cc(CNCCNc3ccnc4cc(Cl)ccc34)ccc21 | 46 | 65 | 34 | 31 | 23 | 45
23 | CCOc1cc2c(cc1OCC)C(c1cc(Cl)ccc1O)NCC2 (centres undefined) | 20 | 42 | -26 | 3 | 17 | 21
24 | COc1nc(Nc2ccc(C(C)C)cc2)nc(OC)n1 | -1 | 32 | 33 | -7 | 33 | 24
25 | CCOc1ccc2nc(C)cc(Nc3ccc(N(C)C)cc3)c2c1.Cl | -27 | 57 | -13 | 4 | 23 | 0
26 | CCOc1cc(CNC(C)C(O)c2ccccc2)cc(Cl)c1OCC (centres undefined) | 40 | 89 | 32 | 25 | 67 | 73
27 | CCOC(=O)c1cnc2ccc(Cl)cc2c1NCCCN(C)C | 17 | 26 | 3 | -14 | -6 | -22
28 | COc1ccc(C(=O)C(CCC(CNC(C)(C)C)C(=O)c2ccc(OC)cc2)CNC(C)(C)C)cc1 (centres undefined) | 94 | 100 | 27 | 75 | 137 | 105
29 | COCCNCC(O)Cn1c2ccc(Cl)cc2c2cc(Cl)ccc21 (centres undefined) | 29 | 30 | 14 | -16 | 28 | 15
